Tests used:
[1] = tested on: D. discoideum GFP-ABD; conditions: 10 µM
[2] = tested on: M. marinum luxCDABE; format: cell-based, Mycobacterium marinum
[3] = tested on: Mtb H37Rv; parameters: method as in Sorrentino et al, 2015; conditions: ref Sorrentino et al, 2015; cited from earlier work
[4] = tested on: M. marinum in A. castellanii; format: cell-based, Mycobacterium marinum
[5] = tested on: M. marinum GFP; format: cell-based, Mycobacterium marinum; conditions: 10 µM; antibiotic assay
[6] = tested on: Mtb H37Rv in THP-1; parameters: method as in Sorrentino et al, 2015; conditions: ref Sorrentino et al, 2015, cited from earlier work; for Intracelullar MIC90 in THP-1: THP1 / Mtb H37Rv infection assay; for Extracellular MIC90/ Inracellular MIC90: ratio
[7] = tested on: M. marinum in BV2 microglial cells; format: cell-based, Mycobacterium marinum

Br.CC(C)(C)c1ccccc1OCCCON1C(=N)N=C(N)NC1(C)C [BRL-7940SA]
D. discoideum GFP-ABD normalised growth, control=1.00, mean [1]: 0.67 | M. marinum luxCDABE normalised growth, control=1.00, mean ([2]; 10 µM): 0.00 | Extracellular MIC90 [3]: 2.3 µM | A. castellanii / M. marinum normalised growth, control=1.00, mean ([4]; 10 µM): 2.62 | M. marinum GFP normalised growth, control=1.00, mean [5]: 0.04 | Intracelullar MIC90 in THP-1 [6]: 1.85 µM | Extracellular MIC90/ Inracellular MIC90 [6]: 1.24 | IC50 [7]: 3.14 µM | BV2 / M. marinum normalised growth, control=1.00, mean ([7]; 10 µM): 0.53

Br.CC1(C)N=C(N)N=C(N)N1OCCc1ccc2ccccc2c1 [BRL-8088SA]
D. discoideum GFP-ABD normalised growth, control=1.00, mean [1]: 0.71 | M. marinum luxCDABE normalised growth, control=1.00, mean ([2]; 10 µM): 0.00 | Extracellular MIC90 [3]: 2.3 µM | A. castellanii / M. marinum normalised growth, control=1.00, mean ([4]; 10 µM): 2.26 | M. marinum GFP normalised growth, control=1.00, mean [5]: 0.05 | Intracelullar MIC90 in THP-1 [6]: 5.55 µM | Extracellular MIC90/ Inracellular MIC90 [6]: 0.41 | IC50 [7]: 2.81 µM | BV2 / M. marinum normalised growth, control=1.00, mean ([7]; 10 µM): 0.52

Br.Cc1ccccc1OCCCON1C(=N)N=C(N)NC1(C)C [BRL-8903SA]
D. discoideum GFP-ABD normalised growth, control=1.00, mean [1]: 0.88 | M. marinum luxCDABE normalised growth, control=1.00, mean ([2]; 10 µM): 0.00 | Extracellular MIC90 [3]: 3.8 µM | A. castellanii / M. marinum normalised growth, control=1.00, mean ([4]; 10 µM): 2.27 | M. marinum GFP normalised growth, control=1.00, mean [5]: 0.06 | Intracelullar MIC90 in THP-1 [6]: 16.65 µM | Extracellular MIC90/ Inracellular MIC90 [6]: 0.23 | IC50 [7]: 4.27 µM | BV2 / M. marinum normalised growth, control=1.00, mean ([7]; 10 µM): 0.52

Br.CCc1ccccc1OCCCON1C(=N)N=C(N)NC1(C)C [BRL-10143SA]
D. discoideum GFP-ABD normalised growth, control=1.00, mean [1]: 0.53 | M. marinum luxCDABE normalised growth, control=1.00, mean ([2]; 10 µM): 0.00 | Extracellular MIC90 [3]: 3.2 µM | A. castellanii / M. marinum normalised growth, control=1.00, mean ([4]; 10 µM): 2.62 | M. marinum GFP normalised growth, control=1.00, mean [5]: 0.04 | Intracelullar MIC90 in THP-1 [6]: 1.85 µM | Extracellular MIC90/ Inracellular MIC90 [6]: 1.73 | IC50 [7]: 4.19 µM | BV2 / M. marinum normalised growth, control=1.00, mean ([7]; 10 µM): 0.55

Br.CC1(C)NC(N)=NC(=N)N1OCCCOc1ccc(Cl)cc1Cl [BRL-51091AM]
D. discoideum GFP-ABD normalised growth, control=1.00, mean [1]: 0.97 | M. marinum luxCDABE normalised growth, control=1.00, mean ([2]; 10 µM): 0.00 | Extracellular MIC90 [3]: 3.5 µM | A. castellanii / M. marinum normalised growth, control=1.00, mean ([4]; 10 µM): 1.95 | M. marinum GFP normalised growth, control=1.00, mean [5]: 1.23 | Intracelullar MIC90 in THP-1 [6]: 5.55 µM | Extracellular MIC90/ Inracellular MIC90 [6]: 0.63 | IC50 [7]: 1.8 µM | BV2 / M. marinum normalised growth, control=1.00, mean ([7]; 10 µM): 0.51

Nc1cccnc1Nc1ccc(Cl)cc1 [GR135486X]
D. discoideum GFP-ABD normalised growth, control=1.00, mean [1]: 0.35 | M. marinum luxCDABE normalised growth, control=1.00, mean ([2]; 10 µM): 1.00 | Extracellular MIC90 [3]: 0.2 µM | A. castellanii / M. marinum normalised growth, control=1.00, mean ([4]; 10 µM): 0.97 | M. marinum GFP normalised growth, control=1.00, mean [5]: 0.83 | Intracelullar MIC90 in THP-1 [6]: 5.55 µM | Extracellular MIC90/ Inracellular MIC90 [6]: 0.04 | IC50 [7]: 10.8 µM | BV2 / M. marinum normalised growth, control=1.00, mean ([7]; 10 µM): 0.75

Cc1occc1C(=O)Nc1nc(-c2ccccn2)nc2ccsc12 [GSK237561A]
D. discoideum GFP-ABD normalised growth, control=1.00, mean [1]: -0.0741 | M. marinum luxCDABE normalised growth, control=1.00, mean ([2]; 10 µM): 0.00 | Extracellular MIC90 [3]: 4 µM | A. castellanii / M. marinum normalised growth, control=1.00, mean ([4]; 10 µM): 1.57 | M. marinum GFP normalised growth, control=1.00, mean [5]: 0.31 | Intracelullar MIC90 in THP-1 [6]: 1.85 µM | Extracellular MIC90/ Inracellular MIC90 [6]: 2.16 | IC50 [7]: 3.9 µM | BV2 / M. marinum normalised growth, control=1.00, mean ([7]; 10 µM): 0.73

N#Cc1ccc2c(c1)CCN(CCCSc1ccnc3cc(C(F)(F)F)ccc13)CC2 [GSK254610A]
D. discoideum GFP-ABD normalised growth, control=1.00, mean [1]: 0.88 | M. marinum luxCDABE normalised growth, control = 1.00, mean ([2]; 10 µM): 0,00 | M. marinum luxCDABE normalised growth, control=1.00, mean ([2]; 10 µM): 0.00 | A. castellanii / M. marinum normalised growth, control=1.00, mean ([4]; 10 µM): 0.87 | Hits A. castellanii/M. marinum assay True/False ([4]; 10 µM): FALSE | M. marinum GFP normalised growth, control=1.00, mean [5]: 0.05 | BV2 / M. marinum normalised growth, control=1.00, mean ([7]; 10 µM): 0.50 | hit in BV2/M. marinum assay True/False ([7]; 10 µM): TRUE

CN1CCN(c2cc(-c3ccncc3)nc(-c3ccccc3)n2)CC1 [GSK275984A]
D. discoideum GFP-ABD normalised growth, control=1.00, mean [1]: 0.52 | M. marinum luxCDABE normalised growth, control=1.00, mean ([2]; 10 µM): 0.065 | Extracellular MIC90 [3]: 9 µM | A. castellanii / M. marinum normalised growth, control=1.00, mean ([4]; 10 µM): 1.13 | M. marinum GFP normalised growth, control=1.00, mean [5]: 0.26 | Intracelullar MIC90 in THP-1 [6]: 5.55 µM | Extracellular MIC90/ Inracellular MIC90 [6]: 1.62 | IC50 [7]: 5.11 µM | BV2 / M. marinum normalised growth, control=1.00, mean ([7]; 10 µM): 0.62

COc1cc(C(F)(F)F)nc2ccc(C)c(N)c12 [GSK345724A]
D. discoideum GFP-ABD normalised growth, control=1.00, mean [1]: 0.95 | M. marinum luxCDABE normalised growth, control=1.00, mean ([2]; 10 µM): 0.31 | Extracellular MIC90 [3]: 5.3 µM | A. castellanii / M. marinum normalised growth, control=1.00, mean ([4]; 10 µM): 1.16 | M. marinum GFP normalised growth, control=1.00, mean [5]: 0.29 | Intracelullar MIC90 in THP-1 [6]: 1.85 µM | Extracellular MIC90/ Inracellular MIC90 [6]: 2.86 | IC50 [7]: 8.6 µM | BV2 / M. marinum normalised growth, control=1.00, mean ([7]; 10 µM): 0.87

Clc1ccc(Nc2nc(-c3ccccn3)cs2)nc1 [GSK445886A]
M. marinum luxCDABE normalised growth, control=1.00, mean ([2]; 10 µM): 0.075 | A. castellanii / M. marinum normalised growth, control=1.00, mean ([4]; 10 µM): 1.31 | M. marinum GFP normalised growth, control=1.00, mean [5]: 0.31 | Intracelullar MIC90 in THP-1 [6]: >50 µM | IC50 [7]: 1.75 µM | BV2 / M. marinum normalised growth, control=1.00, mean ([7]; 10 µM): 0.84

COc1ccc2sc(Nc3nc(-c4ccccn4)cs3)nc2c1 [GSK690382A]
D. discoideum GFP-ABD normalised growth, control=1.00, mean [1]: 1.25 | M. marinum luxCDABE normalised growth, control=1.00, mean ([2]; 10 µM): 0.00 | A. castellanii / M. marinum normalised growth, control=1.00, mean ([4]; 10 µM): 1.07 | M. marinum GFP normalised growth, control=1.00, mean [5]: 0.98 | IC50 [7]: 11.9 µM | BV2 / M. marinum normalised growth, control=1.00, mean ([7]; 10 µM): 0.85

O=C(COc1cccc(F)c1)Nc1nc(-c2ccccn2)cs1 [GSK920684A]
Antibiotic assays: M. marinum luxCDABE [2]: 0.00 | Intracelullar MIC90 in THP-1 [6]: 50 µM

CSc1ccc(C(=O)Nc2nc(-c3ccccn3)cs2)cc1 [GSK921295A]
Antibiotic assays: M. marinum luxCDABE [2]: 0.00 | Extracellular MIC90 [3]: 8.7 µM | Intracellular infection assays: A. castellanii / M. marinum [4]: 1.37 | Intracelullar MIC90 in THP-1 [6]: 50 µM | Extracellular MIC90/ Inracellular MIC90 [6]: 0.17 | Intracellular infection assays: BV2 / M. marinum [7]: 1.23

O=C(O)C(F)(F)F.c1ccc(C[C@H]2CN(c3nccc(Oc4ccc(-n5ccnc5)cc4)n3)CCN2)cc1 [GSK1519001A]
D. discoideum GFP-ABD normalised growth, control=1.00, mean [1]: 0.76 | M. marinum luxCDABE normalised growth, control=1.00, mean ([2]; 10 µM): 0.18 | A. castellanii / M. marinum normalised growth, control=1.00, mean ([4]; 10 µM): 1.14 | M. marinum GFP normalised growth, control=1.00, mean [5]: 0.97 | BV2 / M. marinum normalised growth, control=1.00, mean ([7]; 10 µM): 0.74

CSc1ccc(-c2nnc(NC(=O)c3ccc(Cl)s3)o2)cc1 [GSK1650514A]
D. discoideum GFP-ABD normalised growth, control=1.00, mean [1]: 1.16 | M. marinum luxCDABE normalised growth, control=1.00, mean ([2]; 10 µM): 0.00 | A. castellanii / M. marinum normalised growth, control=1.00, mean ([4]; 10 µM): 1.31 | M. marinum GFP normalised growth, control=1.00, mean [5]: 0.91 | Intracelullar MIC90 in THP-1 [6]: >50 µM | IC50 [7]: 19.7 µM | BV2 / M. marinum normalised growth, control=1.00, mean ([7]; 10 µM): 0.90

Cc1ccc2[nH]c(C3CCCNC3)c(-c3ccncc3)c2c1 (stereo not shown) [GSK1905227A]
D. discoideum GFP-ABD normalised growth, control=1.00, mean [1]: 0.85 | M. marinum luxCDABE normalised growth, control=1.00, mean ([2]; 10 µM): 0.08 | A. castellanii / M. marinum normalised growth, control=1.00, mean ([4]; 10 µM): 1.23 | M. marinum GFP normalised growth, control=1.00, mean [5]: 0.55 | IC50 [7]: 9.76 µM | BV2 / M. marinum normalised growth, control=1.00, mean ([7]; 10 µM): 0.77

COc1cc(CN2CCC3(C=Cc4ccccc43)CC2)cc2c1OCO2 [SB-354364]
D. discoideum GFP-ABD normalised growth, control=1.00, mean [1]: 0.86 | M. marinum luxCDABE normalised growth, control=1.00, mean ([2]; 10 µM): 1.00 | A. castellanii / M. marinum normalised growth, control=1.00, mean ([4]; 10 µM): 1.02 | M. marinum GFP normalised growth, control=1.00, mean [5]: 0.83 | IC50 [7]: 16.8 µM | BV2 / M. marinum normalised growth, control=1.00, mean ([7]; 10 µM): 0.80

Source: publication PMC5834492, “Antimycobacterial drug discovery using Mycobacteria-infected amoebae identifies anti-infectives and new molecular targets” (Scientific Reports, 2018)
